# Source: US20240049723A1, “PLANT GROWTH REGULATOR OR METHOD FOR PROMOTING PLANT GROWTH” (Kureha Corporation, priority 2021, published 2024)
# Columns and labels:
# Assay type in all cases: in vivo
# tomato (Micro Tom) = test: Evaluation Example 4: number of flowers of tomato; conditions: EGT concentration 0.1 mM; 64th day after seeding
# Procedure: In a plastic pot having a square of 120 mm length and a height of 100 mm, 1 L of granular soil (Kumiai horticultural soil) was placed, and one individual tomato (Micro Tom) was sown in a pot.
# (§1) In a thermostatic chamber set at room temperature of 25° C., the light period was 16 hours and the dark period was 8 hours. The light conditions were set using a fluorescent lamp (PLANT FLEC, 40 W LED fluorescent lamp for plant growth, electric bulb color, available from Nippon Medical and Chemical Instruments Co., Ltd.) such that the light intensity was 5000 lx in the central part under irradiation with the fluorescent lamp. Water supply was conducted from the bottom, and the water level was set at about 5 mm. Chemical treatment was started 4 weeks after seeding. More specifically, on the 25th, 27th, 29th, 31st, 33rd, 35th, and 37th days after seeding, 50 mL of the plant growth regulator was added instead of water supply.
# (§2) As the plant growth regulator, the hot water extraction product of Pseudozyma siamensis (C-EGT-PSI) prepared in Production Example 1 was used. Furthermore, for comparison, a plant growth regulator formed from 0.1 mM of ergothioneine aqueous solution was used.
# On the 64th day after seeding, the number of flowers was evaluated.
# [1] = tested on: Arabidopsis thaliana (Col-0); test: Evaluation Example 6: Arabidopsis thaliana treated with Pseudozyma siamensis extracts from various extraction methods; conditions: EGT concentration 0.1 mM
# Procedure: (§3) One individual Arabidopsis thaliana (Col-0) was sown in a plastic pot having a diameter of 60 mm and a height of 55 mm. Plastic deep dishes each having a diameter of 160 mm and a height of 28 mm were prepared, and six pots were respectively placed therein. As soil, 45 mL of vermiculite, 22.5 mL of granular soil (Kumiai horticultural soil), and 22.5 mL of vermiculite were placed in the pot in this order.
# (§4) In a growth chamber set at room temperature of 22° C., the light period was 16 hours and the dark period was 8 hours. The light conditions were set such that the light intensity was 5000 lx in the central part under irradiation with the fluorescent lamp. Water supply was conducted from the bottom, and the water level was set at about 5 mm. Chemical treatment was started […]. More specifically, on the 8th, 10th, 12th, and 14th days after seeding, 50 mL of the plant growth regulator was added instead of water supply.
# (§5) As the plant growth regulator, various extracts of Pseudozyma siamensis obtained in Production Example 2 were used. Furthermore, for comparison, a plant growth regulator formed from 0.1 mM of ergothioneine aqueous solution was used.
# On the 95th day after seeding, seeds were harvested, and the seed yield was evaluated.
# wheat = test: Evaluation Example 3: plant height of wheat, petri dish; conditions: EGT concentration 1 mM; 7th day after seeding
# Procedure: (§6) In a 9 cm petri dish on which filter paper was spread, 10 mL of the plant growth regulator was added. Ten seeds of wheat or rapeseed were sown per one petri dish. In a thermostatic chamber set at room temperature of 25° C., the light period was 16 hours and the dark period was 8 hours. The light conditions were set using a fluorescent lamp (PLANT FLEC, 40 W LED fluorescent lamp for plant growth, electric bulb color, available from Nippon Medical and Chemical Instruments Co., Ltd.) such that the light intensity was 5000 lx in the central part under irradiation with the fluorescent lamp.
# (§7) As the plant growth regulator, the hot water extraction product prepared in Production Example 1 was used. Furthermore, for comparison, a plant growth regulator formed from 1 mM of ergothioneine aqueous solution was used.
# (§8) The plant height of the wheat or rapeseed on the 7th day after seeding was evaluated.
# [2] = tested on: Arabidopsis thaliana (Col-0); test: Evaluation Example 1: seed yield of Arabidopsis thaliana, hot water extraction products; conditions: EGT concentration 1 mM, harvested 89th day after seeding
# Procedure: as §3
# as §1, with “of 22°” for “of 25°”, “started 2” for “started 4”, “the 8th, 10th, 12th,” for “the 25th, 27th, 29th, 31st, 33rd, 35th,”, “and 14th” for “and 37th”
# As the plant growth regulator, the hot water extraction product prepared in Production Example 1 was used. […]
# On the 89th day after seeding, seeds were harvested, and the seed yield was evaluated.
# [3] = tested on: Arabidopsis thaliana (Col-0); test: Evaluation Example 2: seed yield of Arabidopsis thaliana, C-EGT-DCH; conditions: EGT concentration 0.1 mM; harvested 87th day after seeding
# Procedure: as §3, §4
# As the plant growth regulator, the hot water extraction product of Dirkmeia churashimaensis (C-EGT-DCH) prepared in Production Example 1 was used. Furthermore, for comparison, a plant growth regulator formed from 0.1 mM of ergothioneine aqueous solution was used.
# On the 87th day after seeding, seeds were harvested, and the seed yield was evaluated.
# [4] = tested on: Arabidopsis thaliana (Col-0); test: Evaluation Example 7: Arabidopsis thaliana treated with Pseudozyma siamensis extracts from various extraction methods; conditions: EGT concentration 0.1 mM; 93rd day after seeding
# Procedure: as §3, §4, §5
# On the 93rd day after seeding, the plant height, the aboveground part weight, and the seed yield were evaluated.
# radish (Akamaru Hatsuka) = test: Evaluation Example 5: underground part weight of radish; conditions: EGT concentration 0.1 mM; 28th day after seeding
# Procedure: In a plastic pot having a diameter of 100 mm and a height of 135 mm, 600 mL of granular soil (Kumiai horticultural soil) was placed, and one individual radish (Akamaru Hatsuka) was sown in a pot.
# The radish was managed in a greenhouse set at room temperature of 25° C. Chemical treatment was started 2 weeks after seeding. More specifically, on the 10th, 12th, 14th, and 16th days after seeding, 50 mL of the plant growth regulator was added.
# as §2
# On the 28th day after seeding, the underground part weight was evaluated.
# rapeseed = test: Evaluation Example 3: plant height of rapeseed, petri dish; conditions: EGT concentration 1 mM; 7th day after seeding
# Procedure: as §6, §7, §8
# [5] = harvested 95th day after seeding
structure (smiles),measurement,setting,value
"C[N+](C)(C)[C@@H](Cc1c[nH]c(=S)[nH]1)C(=O)[O-] [EGT, ergothioneine]",Flower number ratio to EGT,tomato (Micro Tom),1.0
same,Flower number ratio to untreated control,tomato (Micro Tom),1.3
same,Plant height ratio to EGT,[1]; 95th day after seeding,1.0
same,Plant height ratio to untreated control,[1]; 95th day after seeding,1.1
same,Seed yield ratio to EGT,[1]; [5],1.0
same,Seed yield ratio to untreated control,[1]; [5],1.2
same,Wheat plant height ratio to EGT,wheat,1.0
same,Wheat plant height ratio to untreated control,wheat,1.1
same,Seed yield ratio to EGT,[2]; compared with 1 mM EGT,1.0
same,Seed yield ratio to untreated control,"[2]; 50 mL on 8th, 10th, 12th, 14th days",1.2
same,Seed yield ratio to EGT,[3],1.0
same,Seed yield ratio to untreated control,[3],1.3
same,Aboveground part weight ratio to EGT,[4],1.0
same,Aboveground part weight ratio to untreated control,[4],1.1
same,Plant height ratio to EGT,[4],1.0
same,Plant height ratio to untreated control,[4],1.1
same,Seed yield ratio to EGT,[4],1.0
same,Seed yield ratio to untreated control,[4],1.3
same,Underground part weight ratio to EGT,radish (Akamaru Hatsuka),1.0
same,Underground part weight ratio to untreated control,radish (Akamaru Hatsuka),1.2
same,Rapeseed plant height ratio to EGT,rapeseed,1.0
same,Rapeseed plant height ratio to untreated control,rapeseed,1.1
